Literature values, collected in PubChem BioAssay AID1259409 (Chemical Carcinogenesis Research Information System (CCRIS), 2018).

Tested on: rodent chemically induced tumor inhibition, incidence and multiplicity
Assay: CCRIS tumor inhibitor studies
Conditions: Route [Inhibitor]: ORAL

S=C=NCCc1ccccc1
tumour outcome (control, treated, inhibition, significance) (Carcinogen: N-NITROSOBIS(2-OXOPROPYL)AMINE [60599-38-4], Dose [Inhibitor]: 3 UMOL IN DIET FOR 49 WK BEGINNING 2 WK POST LAST CARCINOGEN DOSE (STUDY DURATION: 52 WK), Species: HAMSTER, Strain/Sex: SYRIAN/FEMALE, Target Tissue: Type of Lesion: LUNG: ADENOCARCINOMA, Dose [Carcinogen]: 20 MG/KG BW 1X/WK FOR 2 WK (STUDY DURATION: 52 WK), Promoter: NONE): 14/25 (56.0%), 12/28 (42.9%), 23%, not significant
tumour outcome (control, treated, inhibition, significance) (Carcinogen: N-NITROSOBIS(2-OXOPROPYL)AMINE [60599-38-4], Dose [Inhibitor]: 3 UMOL IN DIET FOR 49 WK BEGINNING 2 WK POST LAST CARCINOGEN DOSE (STUDY DURATION: 52 WK), Species: HAMSTER, Strain/Sex: SYRIAN/FEMALE, Target Tissue: Type of Lesion: LUNG: ADENOMA, Dose [Carcinogen]: 20 MG/KG BW 1X/WK FOR 2 WK (STUDY DURATION: 52 WK), Promoter: NONE): 20/25 (88.0%), 26/28 (92.9%), -6%, not significant
tumour outcome (control, treated, inhibition, significance) (Carcinogen: N-NITROSOBIS(2-OXOPROPYL)AMINE [60599-38-4], Dose [Inhibitor]: 3 UMOL IN DIET FOR 49 WK BEGINNING 2 WK POST LAST CARCINOGEN DOSE (STUDY DURATION: 52 WK), Species: HAMSTER, Strain/Sex: SYRIAN/FEMALE, Target Tissue: Type of Lesion: PANCREAS: ADENOCARCINOMA, Dose [Carcinogen]: 20 MG/KG BW 1X/WK FOR 2 WK (STUDY DURATION: 52 WK), Promoter: NONE): 20/25 (80.0%), 22/28 (78.6%), 2%, not significant
tumour outcome (control, treated, inhibition, significance) (Carcinogen: N-NITROSOBIS(2-OXOPROPYL)AMINE [60599-38-4], Dose [Inhibitor]: 6 UMOL IN DIET FOR 49 WK BEGINNING 2 WK POST LAST CARCINOGEN DOSE (STUDY DURATION: 52 WK), Species: HAMSTER, Strain/Sex: SYRIAN/FEMALE, Target Tissue: Type of Lesion: LIVER: HEPATOCELLULAR ADENOMA, Dose [Carcinogen]: 20 MG/KG BW 1X/WK FOR 2 WK (STUDY DURATION: 52 WK), Promoter: NONE): 18/25 (72.0%), 16/28 (57.1%), 21%, not significant
tumour outcome (control, treated, inhibition, significance) (Carcinogen: N-NITROSOBIS(2-OXOPROPYL)AMINE [60599-38-4], Dose [Inhibitor]: 6 UMOL IN DIET FOR 49 WK BEGINNING 2 WK POST LAST CARCINOGEN DOSE (STUDY DURATION: 52 WK), Species: HAMSTER, Strain/Sex: SYRIAN/FEMALE, Target Tissue: Type of Lesion: LUNG: ADENOCARCINOMA, Dose [Carcinogen]: 20 MG/KG BW 1X/WK FOR 2 WK (STUDY DURATION: 52 WK), Promoter: NONE): 14/25 (56.0%), 11/28 (39.3%), 30%, not significant
tumour outcome (control, treated, inhibition, significance) (Carcinogen: N-NITROSOBIS(2-OXOPROPYL)AMINE [60599-38-4], Dose [Inhibitor]: 6 UMOL IN DIET FOR 49 WK BEGINNING 2 WK POST LAST CARCINOGEN DOSE (STUDY DURATION: 52 WK), Species: HAMSTER, Strain/Sex: SYRIAN/FEMALE, Target Tissue: Type of Lesion: LUNG: ADENOMA, Dose [Carcinogen]: 20 MG/KG BW 1X/WK FOR 2 WK (STUDY DURATION: 52 WK), Promoter: NONE): 20/25 (88.0%), 24/28 (85.7%), 3%, not significant
tumour outcome (control, treated, inhibition, significance) (Carcinogen: N-NITROSOBIS(2-OXOPROPYL)AMINE [60599-38-4], Dose [Inhibitor]: 6 UMOL IN DIET FOR 49 WK BEGINNING 2 WK POST LAST CARCINOGEN DOSE (STUDY DURATION: 52 WK), Species: HAMSTER, Strain/Sex: SYRIAN/FEMALE, Target Tissue: Type of Lesion: PANCREAS: ADENOCARCINOMA, Dose [Carcinogen]: 20 MG/KG BW 1X/WK FOR 2 WK (STUDY DURATION: 52 WK), Promoter: NONE): 20/25 (80.0%), 25/28 (89.3%), -12%, not significant
tumour outcome (control, treated, inhibition, significance) (Carcinogen: N-NITROSOMETHYLBENZYLAMINE, 937-40-6, Dose [Inhibitor]: 0, 0.325 UMOL/G OF DIET FOR 25 WK BEGINNING 2 WK PRIOR TO CARCINOGEN TREATMENT (STUDY DURATION: 25 WK), Species: RAT, Strain/Sex: F344/MALE, Target Tissue: Type of Lesion: ESOPHAGUS: TUMORS, Dose [Carcinogen]: 0.5 MG/KG 1/WK FOR 15 WK, Promoter: NONE USED): 100%, 100%, 0%, not significant
tumour outcome (control, treated, inhibition, significance) (Carcinogen: N-NITROSOMETHYLBENZYLAMINE, 937-40-6, Dose [Inhibitor]: 0, 0.4 UMOL/G IN DIET FOR 25 WK BEGINNING 2 WK PRIOR TO CARCINOGEN TREATMENT (STUDY DURATION: 25 WK), Species: RAT, Strain/Sex: F344/MALE, Target Tissue: Type of Lesion: ESOPHAGUS: TUMOR, Dose [Carcinogen]: 0.5 MG/KG BW IN 20% DMSO 1/WK FOR 15 WK, Promoter: NONE USED): 100%, 57%, 43%, not significant
tumour outcome (control, treated, inhibition, significance) (Carcinogen: N-NITROSOMETHYLBENZYLAMINE, 937-40-6, Dose [Inhibitor]: 0, 0.75 UMOL/G OF DIET FOR 25 WK BEGINNING 2 WK PRIOR TO CARCINOGEN TREATMENT (STUDY DURATION: 25 WK), Species: RAT, Strain/Sex: F344/MALE, Target Tissue: Type of Lesion: ESOPHAGUS: TUMORS, Dose [Carcinogen]: 0.5 MG/KG 1/WK FOR 15 WK, Promoter: NONE USED): 100%, 100%, 0%, not significant
tumour outcome (control, treated, inhibition, significance) (Carcinogen: N-NITROSOMETHYLBENZYLAMINE, 937-40-6, Dose [Inhibitor]: 0, 1 UMOL/G IN DIET FOR 25 WK BEGINNING 2 WK PRIOR TO CARCINOGEN TREATMENT (STUDY DURATION: 25 WK), Species: RAT, Strain/Sex: F344/MALE, Target Tissue: Type of Lesion: ESOPHAGUS: TUMOR, Dose [Carcinogen]: 0.5 MG/KG BW IN 20% DMSO 1/WK FOR 15 WK, Promoter: NONE USED): 100%, 40%, 60%, p<0.05
tumour outcome (control, treated, inhibition, significance) (Carcinogen: N-NITROSOMETHYLBENZYLAMINE, 937-40-6, Dose [Inhibitor]: 0, 1.5 UMOL/G OF DIET FOR 25 WK BEGINNING 2 WK PRIOR TO CARCINOGEN TREATMENT (STUDY DURATION: 25 WK), Species: RAT, Strain/Sex: F344/MALE, Target Tissue: Type of Lesion: ESOPHAGUS: TUMORS, Dose [Carcinogen]: 0.5 MG/KG 1/WK FOR 15 WK, Promoter: NONE USED): 100%, 60%, 40%, p<0.01
tumour outcome (control, treated, inhibition, significance) (Carcinogen: N-NITROSOMETHYLBENZYLAMINE, 937-40-6, Dose [Inhibitor]: 0, 2.5 UMOL/G IN DIET FOR 25 WK BEGINNING 2 WK PRIOR TO CARCINOGEN TREATMENT (STUDY DURATION: 25 WK), Species: RAT, Strain/Sex: F344/MALE, Target Tissue: Type of Lesion: ESOPHAGUS: TUMOR, Dose [Carcinogen]: 0.5 MG/KG BW IN 20% DMSO 1/WK FOR 15 WK, Promoter: NONE USED): 100%, 7%, 93%, p<0.05
tumour outcome (control, treated, inhibition, significance) (Carcinogen: N-NITROSOMETHYLBENZYLAMINE, 937-40-6, Dose [Inhibitor]: 0, 3 UMOL/G OF DIET FOR 25 WK BEGINNING 2 WK PRIOR TO CARCINOGEN TREATMENT (STUDY DURATION: 25 WK), Species: RAT, Strain/Sex: F344/MALE, Target Tissue: Type of Lesion: ESOPHAGUS: TUMORS, Dose [Carcinogen]: 0.5 MG/KG 1/WK FOR 15 WK, Promoter: NONE USED): 100%, 0%, 100%, p<0.01
tumour outcome (control, treated, inhibition, significance) (Carcinogen: N-NITROSOMETHYLBENZYLAMINE, 937-40-6, Dose [Inhibitor]: 0, 500 PPM IN DIET FOR DURATION OF STUDY BEGINNING 1 WK POST CARCINOGEN TREATMENT (STUDY DURATION: 25 WK), Species: RAT, Strain/Sex: F344/MALE, Target Tissue: Type of Lesion: ESOPHAGUS: TUMOR, Dose [Carcinogen]: 1 MG/KG 3/WK FOR 5 WK, Promoter: NONE USED): 15/15 (100%), 14/15 (93%), 7%, not significant
tumour outcome (control, treated, inhibition, significance) (Carcinogen: N-NITROSOMETHYLBENZYLAMINE, 937-40-6, Dose [Inhibitor]: 0, 500 PPM IN DIET FOR DURATION OF STUDY BEGINNING 2 WK PRIOR TO CARCINOGEN TREATMENT (STUDY DURATION: 25 WK), Species: RAT, Strain/Sex: F344/MALE, Target Tissue: Type of Lesion: ESOPHAGUS: TUMOR, Dose [Carcinogen]: 1 MG/KG 3/WK FOR 5 WK, Promoter: NONE USED): 15/15 (100%), 7/15 (47%), 53%, p<0.01
